Experimental data taken from patent US9572877B2 (priority 2010, dated 2017).

What was measured:
[1] = system: mouse BMDC (Bone marrow DCs); test: Maturation of dendritic cells: surface marker expression by flow cytometry, mouse BMDC; type: cell-based; details: mouse BMDCs, 1 μg/ml, 37° C., 24 hrs
Protocol: (§1) Approximately 80 ml of blood from healthy human donors was collected and isolated peripheral blood mononuclear cells (PBMCs) with Ficoll-Paque™ gradient separation method. Monocytes were isolated from PBMCs using anti-CD14 microbeads (MACS system), seeded at […] in a 24-well plate with RPMI medium contained 10% FBS, IL-4 and GM-CSF and cultured to obtain human MDDCs. Bone marrow cells were isolated from male BALB/c mouse and cultured with medium contained IL-4 and GM-CSF for 6 days to obtain BMDCs. Then, at 7 days, CD11c^+ cells were isolated using anti-CD11c-coated magnetic beads.
(§2) Human MDDCs (Monocyte-derived DC cells) and mouse BMDC (Bone marrow DCs) were isolated with the method described above, treated respectively with LPS, MPL and CIA05 with 1 μg/ml of concentration and incubated at 37° C. for 24 hrs. After incubation, CD40, CD80 and CD86 were verified in mouse BMDCs surface, and HLA-DR, CD80 and CD86 were verified in human MDDCs by flow cytometry, respectively. […] Therefore, CIA05 may solve these problems.

[2] = system: Human MDDCs (Monocyte-derived DC cells); test: Maturation of dendritic cells: surface marker expression by flow cytometry, human MDDCs; type: cell-based; details: 1 μg/ml, 37° C., 24 hrs
Protocol: as §1, §2

Substance: lipopolysaccharide [LPS]
- expression of DCs surface marker CD40, CD80 and CD86 [1]: expressed with similar distribution

Substance: Monophosphoryl lipid A [MPL]
- expression of DCs surface marker CD40, CD80 and CD86 [1]: expressed with similar distribution
- expression of MDDCs surface marker HLA-DR, CD80 and CD86 [2]: limited in human
